In US8497263B2, “Pyrrolinone derivative and pharmaceutical composition comprising the same” (Shionogi & Co., Ltd., priority 2007, dated 2013) one finds melting point data, which are given here for 42 molecules.

Molecules are shown by their SMILES. Bounds are passed on as bounds.

As usually defined, the melting point is the temperature, or range, at which the solid turns liquid.

`COc1ccc(C(=O)C2C(=O)C(=O)N(c3ccc(-c4cnco4)cc3)C2c2ccccc2)cc1` (stereo not drawn) [Example I-78] showed a melting point of 253 to 254 °C.

`COc1ccc(C(=O)C2=C(O)C(=O)N(Cc3ccc(C(F)(F)F)cc3)C2c2ccc(F)cc2)cc1` (stereo not drawn) [Example I-204] showed a melting point of 234 to 237 °C. On to `COc1ccc(C(=O)C2=C(O)C(=O)N(c3ccc(-c4ccon4)cc3)C2C(C)c2ccccc2)cc1` (stereo not drawn) [Example I-221], for which the melting point was in the range of 241 to 244 °C. Take `CCC(CC)C1C(C(=O)c2ccc(OC)cc2)=C(O)C(=O)N1c1ccc(-c2noc(C)n2)cc1` (stereo not drawn) [Example I-232]: the melting point lay within 223 to 225 °C. For the molecule `CCCCC(CCCC)C1C(C(=O)c2ccc(OC)cc2)=C(O)C(=O)N1c1ccc(-c2ccon2)cc1` (stereo not drawn) [Example I-215], the melting point lay in the range of 207 to 210 °C. Next, `CCC(CC)C1c2c(-c3ccc(=O)[nH]c3)n[nH]c2C(=O)N1c1ccc(-c2ccon2)cc1` (stereo not drawn) [Example I-198, 4-(1-ethylpropyl)-5-(4-isoxazol-3-ylphenyl)-3-(6-oxo-1,6-dihydropyridin-3-yl)-4,5-dihydro-1H-pyrrolo[3,4-c]pyrazol-6-one]: greater than 290 °C.

For `CO/N=C/c1ccc(N2C(=O)C(O)=C(C(=O)c3ccc(OC)cc3)C2c2ccc(F)cc2)cc1` (stereo not drawn) [Example I-209], the melting point was 232 to 235 °C. In the case of `CCCC(C)C1C(C(=O)c2ccc(OC)cc2)=C(O)C(=O)N1c1ccc(-c2ccon2)cc1` (stereo not drawn) [Example I-214], the melting point was 227 to 232 °C.

In turn, `COc1ccc(C(=O)C2=C(O)C(=O)N(c3ccc(-c4ccon4)cc3)C2C2CCOCC2)cc1` (stereo not drawn) [Example I-224] registered a melting point of 268 to 272 °C.

Regarding `COc1ccc(C(=O)C2=C(O)C(=O)N(c3ccc(-c4noc(C)n4)cc3)C2c2ccc(F)cc2)cc1` (stereo not drawn) [Example I-14], the melting point was in the range of 236 to 239 °C. Next, `COc1ccc(C(=O)C2C(=O)C(=O)N(c3ccc(-c4cnco4)cc3)C2c2ccc(F)cc2)cc1` (stereo not drawn) [Example I-64]: 245 to 246 °C; `CC(C)(C)c1n[nH]c2c1C(C1CCCCC1)N(c1ccc(C(F)(F)F)cc1)C2=O` (stereo not drawn) [Example I-194]: 245 to 246 °C; `COc1ccccc1C1c2c(C(C)(C)C)n[nH]c2C(=O)N1c1cccc(-c2ccon2)c1` (stereo not drawn) [II-8]: 202 °C. Then `COc1ccc(C(=O)C2=C(O)C(=O)N(c3ccc(C(=O)O)cc3)C2c2ccccc2)cc1` (stereo not drawn) [Example I-87], with 268 to 271 °C; and `COc1ccc(C(=O)C2=C(O)C(=O)N(c3ccc(OC)cc3)C2c2ccc(F)cc2)cc1` (stereo not drawn) [Example I-238], with 245 to 247 °C; and `COc1ccc(C(=O)C2=C(O)C(=O)N(c3ccc(-c4ccon4)cc3)C2c2cccc(OC)c2)cc1` (stereo not drawn) [Example I-46], with 238 to 240 °C. Next, `COc1ccc(C(=O)C2=C(O)C(=O)N(c3ccc(-c4ccon4)cc3)C2c2ccc(Cl)cc2)cc1` (stereo not drawn) [Example I-11]: 268 to 270 °C (dec.). `CCOC(=O)c1ccc(N2C(=O)/C(=N\O)C(/C(=N\O)c3ccc(OC)cc3)C2c2ccccc2)cc1` (stereo not drawn) [Example I-226]: the melting point is 219 to 221 °C (dec.).

With `COc1ccc(C(=O)C2=C(O)C(=O)N(c3ccc(C4=NCCS4)cc3)C2C2CCCCC2)cc1` (stereo not drawn) [Example I-233], the melting point is 247 to 250 °C. Regarding `COc1ccc(C(=O)C2C(=O)C(=O)N(c3ccc(-c4ccon4)cc3)C2c2ccccc2Cl)cc1` (stereo not drawn) [Example I-40], the melting point was 254 to 258 °C (dec.). Then `COc1ccc(C(=O)C2=C(O)C(=O)N(c3ccc(-c4noc(C)n4)cc3)C2C2CCCCC2)cc1` (stereo not drawn) [Example I-231], with 245 to 248 °C; and `COc1ccc(C2C(Cc3ccccc3)=C(O)C(=O)N2c2ccc(F)cc2)cc1` (stereo not drawn) [Example I-202], with 177 to 178 °C; and `COc1ccc(C(=O)C2C(=O)C(=O)N(c3ccc(OC)cc3)C2c2ccc(F)cc2)cc1` (stereo not drawn) [Example I-73], with 245 to 247 °C. On to `COc1ccc(C(=O)C2=C(O)C(=O)N(c3ccc(-c4ccon4)cc3)C2c2ccccc2F)cc1` (stereo not drawn) [Example I-31], for which the melting point was 270 to 271 °C (dec.).

As for `CCC(CC)C1c2c(-c3ccc(OC)nc3)n[nH]c2C(=O)N1c1ccc(-c2ccon2)cc1` (stereo not drawn) [Example I-211], the melting point fell in the range of 226 to 228 °C. Then `COc1ccc(C(=O)C2=C(O)C(=O)N(c3ccc(-c4ccon4)cc3)C2c2cccc(Cl)c2)cc1` (stereo not drawn) [Example I-27], with 238 to 240 °C; and `COc1ccc(C(=O)C2=C(O)C(=O)N(c3ccc(-c4nnco4)cc3)C2c2ccc(F)cc2)cc1` (stereo not drawn) [Example I-213], with 244 to 247 °C; and `COc1ccc(C(=O)C2=C(O)C(=O)N(c3ccc(-c4ccon4)cc3)C2c2cccc(F)c2)cc1` (stereo not drawn) [Example I-26, 5-(3-fluorophenyl)-3-hydroxy-1-(4-isoxazol-3-ylphenyl)-4-(4-methoxybenzoyl)-1,5-dihydropyrrol-2-one], with 273 to 274 °C (dec.). Molecule `COc1ccc(C(=O)C2=C(OCc3ccccc3)C(=O)N(c3ccc(C(F)(F)F)cc3)C2c2ccccc2)cc1` (stereo not drawn) [Example I-217] displayed a melting point of 173 to 174 °C. Then `CC(C)(C)C1=NCCNC2=C1C(C1CCCCC1)N(c1ccc(-c3ccon3)cc1)C2=O` (stereo not drawn) [Example I-230], with 229 to 230 °C.

In the case of `COc1ccc(C(=O)C2C(=O)C(=O)N(c3ccc(-c4ccon4)cc3)C2c2ccc(F)cc2)cc1` (stereo not drawn) [Example I-18], the melting point was 269 to 274 °C (dec.). Then `COc1ccc(C2=NCCNC3=C2C(c2ccc(F)cc2)N(c2ccc(C(F)(F)F)cc2)C3=O)cc1` (stereo not drawn) [Example I-229], with 213 to 215 °C; and `CO/N=C(\C)c1ccc(N2C(=O)C(O)=C(C(=O)c3ccc(OC)cc3)C2c2ccc(F)cc2)cc1` (stereo not drawn) [Example I-227], with 221 to 224 °C.

In the case of `COc1ccc(C(=O)C2=C(O)C(=O)N(c3ccc(C(F)(F)F)cc3)C2c2ccc(F)cc2)cc1` (stereo not drawn) [Example I-34], the melting point is 253 to 256 °C (dec.). In the case of `COC1=C(C(=O)C(C)(C)C)C(c2ccccc2OC)N(c2ccc(-c3ccon3)cc2)C1=O` (stereo not drawn) [II-156], the melting point was 136 to 137 °C. `COc1ccc(C(=O)C2=C(O)C(=O)N(c3ccc(-c4ccon4)cc3)C2c2ccccn2)cc1` (stereo not drawn) [Example I-236] had a melting point of 232 to 234 °C. Next, `COc1ccc(C(=O)C2=C(O)C(=O)N(c3ccc(-c4cc(C)no4)cc3)C2c2ccc(F)cc2)cc1` (stereo not drawn) [Example I-219]: 249 to 252 °C.

Regarding `CCC(CC)C1C(C(=O)c2ccc(OC)nc2)=C(O)C(=O)N1c1ccc(-c2ccon2)cc1` (stereo not drawn) [Example I-207], the melting point fell in the range of 246 to 249 °C. The molecule `COc1ccc(C(=NO)C2=C(OCc3ccccc3)C(=O)N(c3ccc(C(F)(F)F)cc3)C2c2ccccc2)cc1` (stereo not drawn) [Example I-250] displayed a melting point of 197 to 204 °C. Molecule `CC(C)(C)C(=O)C1=C(O)C(=O)N(c2ccc(C(F)(F)F)cc2)C1C1CCCCC1` (stereo not drawn) [Example I-56] displayed a melting point of 238 to 239 °C. As to `CCC(CC)C1C(C(=O)c2ccc(=O)[nH]c2)=C(O)C(=O)N1c1ccc(-c2ccon2)cc1` (stereo not drawn) [Example I-208], the melting point was greater than 290 °C. Then `COc1ccc(C(=O)C2=C(O)C(=O)N(c3cccc(-c4ccon4)c3)C2c2ccc(F)cc2)cc1` (stereo not drawn) [Example I-185], with 193 to 196 °C.
